“Also recorded” adds a separate entry of the source.
Key:
[1] = molecular target: T1, human androgen receptor (AR) binding to flARE (Homo sapiens, UniProt P10275); experiment: FAMA: inhibition of AR binding to flcARE; details: binding to HRE, 5 concentrations 0.5-10 μM, sequential method
T1 construct: AR assays contained 1 nM flcARE and 50 nM full-length wild-type AR; FLAG; made in house
T1 sequence (P10275 1-920): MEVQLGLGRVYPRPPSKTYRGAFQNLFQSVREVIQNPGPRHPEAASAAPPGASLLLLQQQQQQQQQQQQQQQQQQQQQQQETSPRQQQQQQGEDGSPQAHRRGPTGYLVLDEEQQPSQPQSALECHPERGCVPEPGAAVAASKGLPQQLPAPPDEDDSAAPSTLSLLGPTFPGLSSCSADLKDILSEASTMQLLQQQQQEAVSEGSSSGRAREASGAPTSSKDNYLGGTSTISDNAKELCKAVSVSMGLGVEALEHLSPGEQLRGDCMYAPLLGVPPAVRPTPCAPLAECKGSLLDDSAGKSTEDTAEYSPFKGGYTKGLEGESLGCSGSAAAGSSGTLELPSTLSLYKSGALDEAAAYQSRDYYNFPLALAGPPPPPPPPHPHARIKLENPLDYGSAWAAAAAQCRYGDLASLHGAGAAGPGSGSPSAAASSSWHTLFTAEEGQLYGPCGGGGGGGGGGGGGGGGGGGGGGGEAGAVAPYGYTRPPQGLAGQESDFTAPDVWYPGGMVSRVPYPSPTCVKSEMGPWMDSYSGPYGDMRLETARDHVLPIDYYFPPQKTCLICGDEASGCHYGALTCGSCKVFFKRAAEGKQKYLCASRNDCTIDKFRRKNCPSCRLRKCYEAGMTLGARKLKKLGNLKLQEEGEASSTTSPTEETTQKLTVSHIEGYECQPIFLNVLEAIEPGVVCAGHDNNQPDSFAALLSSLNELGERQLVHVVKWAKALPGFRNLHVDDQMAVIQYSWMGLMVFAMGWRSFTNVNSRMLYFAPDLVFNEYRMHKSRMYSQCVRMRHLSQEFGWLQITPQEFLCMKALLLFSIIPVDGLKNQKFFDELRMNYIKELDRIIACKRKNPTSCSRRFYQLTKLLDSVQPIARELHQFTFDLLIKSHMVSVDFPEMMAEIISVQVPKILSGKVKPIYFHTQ
Experimental: (§1) Dose response curves for selected compounds were carried out as described for the HTS screen except that each well contained the indicated concentration of test compound. PR assays were carried out in the same buffer used for ERα assays and contained 1 nM flcPRE and 11 nM PR-B and 100 nM progesterone. The buffer used for AR was similar but also contained 5 μM ZnCl, 5 mM NaF, 0.6 μM CHAPS and 100 nM dihydrotestosterone. AR assays contained 1 nM flcARE and 50 nM full-length wild-type AR.
(§2) Specificity was evaluated in dose-response studies by quantitative FAMA using purified full-length human PR binding to a fluorescein-labeled progesterone/glucocorticoid response element (flPRE) and full-length human androgen receptor (AR) binding to a fluorescein-labeled androgen response element (flARE).

[2] = molecular target: T2, human PR-B binding to flPRE (Homo sapiens, UniProt P06401); experiment: FAMA: inhibition of PR binding to flcPRE; details: binding to HRE, 5 concentrations 0.5-10 μM, sequential method
T2 construct: FLAG; made in house
T2 sequence (P06401 1-933): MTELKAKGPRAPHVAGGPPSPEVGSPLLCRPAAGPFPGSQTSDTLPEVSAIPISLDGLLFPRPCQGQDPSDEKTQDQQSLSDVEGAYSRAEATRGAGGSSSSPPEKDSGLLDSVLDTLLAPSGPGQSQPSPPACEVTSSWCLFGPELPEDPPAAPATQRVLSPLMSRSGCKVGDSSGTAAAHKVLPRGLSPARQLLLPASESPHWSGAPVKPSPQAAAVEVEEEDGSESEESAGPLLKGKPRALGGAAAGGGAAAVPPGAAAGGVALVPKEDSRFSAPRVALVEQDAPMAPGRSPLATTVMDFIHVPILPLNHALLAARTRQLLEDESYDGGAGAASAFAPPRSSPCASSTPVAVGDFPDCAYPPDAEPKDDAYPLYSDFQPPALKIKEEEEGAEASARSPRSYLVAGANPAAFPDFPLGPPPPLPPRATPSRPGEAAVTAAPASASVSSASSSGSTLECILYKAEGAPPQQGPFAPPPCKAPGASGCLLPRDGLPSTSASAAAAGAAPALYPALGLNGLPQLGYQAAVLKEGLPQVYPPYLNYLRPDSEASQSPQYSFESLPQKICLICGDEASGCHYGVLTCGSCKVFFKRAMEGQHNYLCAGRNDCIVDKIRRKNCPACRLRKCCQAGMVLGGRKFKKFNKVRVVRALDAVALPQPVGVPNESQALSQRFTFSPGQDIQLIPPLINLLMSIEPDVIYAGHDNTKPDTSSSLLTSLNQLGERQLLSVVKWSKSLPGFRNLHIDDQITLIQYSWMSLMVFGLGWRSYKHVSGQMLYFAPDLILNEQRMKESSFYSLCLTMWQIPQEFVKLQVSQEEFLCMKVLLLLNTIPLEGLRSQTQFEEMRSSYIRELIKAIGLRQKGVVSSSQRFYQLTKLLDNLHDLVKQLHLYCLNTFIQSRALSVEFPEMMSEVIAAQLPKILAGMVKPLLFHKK
Experimental: as §1, §2

[3] = test system: ERα negative MDA-MB-231 cells; experiment: MDA-MB-231 cell growth / toxicity assay (MTS); format: cell-based, human; details: for effect on growth of MDA-MB-231 cells (toxicity): up to 30 μM, Example 1 assays (1 day / 5 days); for effect on growth of ER negative MDA-MB-231 cells: all concentrations
Experimental: ERα negative MDA-MB-231 human breast cancer cells were used to test for generalized toxicity of the test compounds. To parallel the reporter gene assays in stably transfected T47D breast cancer cells, 5,000 MDA-MB-231 cells per well were plated in a 96 well plate. The cells were maintained in the medium described above for the T47D cells. One day after plating, the same concentration of test compound used in the reporter gene assay (up to 30 μM) was added. After 24 h the MTS assay was carried out as described above. A more stringent toxicity assay parallels the assay for inhibition of estrogen-dependent growth of BG-1 cells. 250 MDA-MB-231 cells were plated per well and maintained and assayed as described for the BG-1 cells. Several compounds without detectable toxicity in the 24-h assay inhibited MDA-MB-231 cell growth in the 5-6 day assay.
Assays for Cell Growth and Viability. Cells were maintained in the media listed above containing CD-treated serum for at least 4 days prior to the experiment. To minimize cell aggregation, MCF-7 cells were harvested in 10 mM Hepes, pH 7.4, 1 mM EDTA. Other cell lines were harvested in trypsin-EDTA. 1,000 cells were plated into each well of a 96 well plate. For slow growing ZR-75 cells, 2,000 cells were plated/well. The cells were maintained in medium containing CD-treated serum for 24 hours. At 24 hours the medium was changed and E2 and DMSO vehicle or TPSF in DMSO was added. The medium was replaced after 2 days (except for BT474 cells whose medium was not changed). After 4 days viable cells were determined using a cell viability test, Promega CellTiter 96 Aqueous One Solution Cell Proliferation Assay (MTS) (Promega, Wis.).

IC50 [1] [µM]	IC50 [2] [µM]	Compound	reduction of growth of MDA-MB-231 cells ([3]; 30 μM, 5 days)	effect on growth of MDA-MB-231 cells ([3]; 1-20 μM, 5 days)	effect on growth of MDA-MB-231 cells (toxicity) [3]	effect on growth of MDA-MB-231 cells (toxicity) ([3]; listed as TPBM)	IC50 ([3]; Homo sapiens, MDA-MB-231, 96 h, 4 days, MTS, read-out: IC50 for inhibition of MDA-MB-231 (ER Neg. cells) cell growth) [µM]	inhibition of growth of MDA-MB-231 cells ([3]; all concentrations tested, including 30 μM, 4 days) [%]	effect on growth of ER negative MDA-MB-231 cells ([3]; including 30 μM, 4 days)	effect on growth of ER negative MDA-MB-231 cells ([3]; including 30 μM, 4 days, listed as 97998/TPSF)
5.2	7.5	CN1CCC(C#N)c2ccccc21 (centres unmarked) [Compound 1529]	50-60%	unaffected						
7.6	9.5	Cn1c(=O)c2nc(CSCc3ccccc3)[nH]c2n(C)c1=O [Compound 95910, 8-Benzylsulfanylmethyl-1,3-dimethyl-3,7-dihydro-purine-2,6-dione]			No toxicity	had no effect; also recorded: no inhibition				
5	7.4	CN(C)CCCn1c2c3ccccc3ccc2c2oc(=O)c3ccccc3c21 [Compound 638432]								
		Cn1c(=S)c2[nH]c(SCCCC(=O)c3ccc(F)cc3)nc2n(C)c1=O [TPSF, Butyrophenone, p-fluoro-4-(1,2,3,6,-tetrahydro-1,3-dimethyl-2-oxo-6-thionopurin-8-ylthio)]					> 30	0	did not inhibit growth; also recorded: lacks toxicity	did not inhibit growth; also recorded: does not inhibit growth

From patent US8871751B2, “Compositions and methods relating to nuclear hormone and steroid hormone receptors including inhibitors of estrogen receptor alpha-mediated gene expression and inhibition of breast cancer” (The Board of Trustees of the University of Illinois, priority 2008, dated 2014)
